From patent publication US11512080B2, “CRBN ligands and uses thereof” (Kymera Therapeutics, Inc., priority 2018, dated 2022)
Read-outs that look alike come from different tables or passages of the source.

Target: His-tagged CRBN-DDB1 complex (Homo sapiens (Human), UniProt Q96SW2)
Assay: Time-Resolved Fluorescence Resonance Energy Transfer (TR-FRET) assay
Type: binding
Conditions: read-out: CRBN HTRF IC50
Method: The mixture were incubated at room temperature for 1 hour. […] Quantitative loss of FRET efficiency as a function of compound concentrations was fitted by a four-parameter Logistic Function using GraphPad Prism 7.0 and the IC50 values were reported for each compound.
The compound numbers correspond to the compound numbers in Table 1.

[1] = competition with Cy5-labeled thalidomide (8 nM), 1 hour at room temperature

His-tagged CRBN-DDB1 complex, sequence (Q96SW2 whole entry): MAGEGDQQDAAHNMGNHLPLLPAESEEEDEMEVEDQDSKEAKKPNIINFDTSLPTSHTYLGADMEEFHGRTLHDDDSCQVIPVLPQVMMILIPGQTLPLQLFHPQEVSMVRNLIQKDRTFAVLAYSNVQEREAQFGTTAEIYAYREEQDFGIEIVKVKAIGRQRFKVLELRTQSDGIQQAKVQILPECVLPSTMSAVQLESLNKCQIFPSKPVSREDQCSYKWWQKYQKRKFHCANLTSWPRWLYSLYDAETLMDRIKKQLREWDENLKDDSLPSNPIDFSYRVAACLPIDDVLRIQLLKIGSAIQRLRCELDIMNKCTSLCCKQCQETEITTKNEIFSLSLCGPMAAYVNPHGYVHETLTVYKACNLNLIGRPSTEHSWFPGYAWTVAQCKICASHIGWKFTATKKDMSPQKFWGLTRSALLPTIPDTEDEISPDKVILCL
His-tagged CRBN-DDB1 complex, sequence (Q16531 whole entry partner): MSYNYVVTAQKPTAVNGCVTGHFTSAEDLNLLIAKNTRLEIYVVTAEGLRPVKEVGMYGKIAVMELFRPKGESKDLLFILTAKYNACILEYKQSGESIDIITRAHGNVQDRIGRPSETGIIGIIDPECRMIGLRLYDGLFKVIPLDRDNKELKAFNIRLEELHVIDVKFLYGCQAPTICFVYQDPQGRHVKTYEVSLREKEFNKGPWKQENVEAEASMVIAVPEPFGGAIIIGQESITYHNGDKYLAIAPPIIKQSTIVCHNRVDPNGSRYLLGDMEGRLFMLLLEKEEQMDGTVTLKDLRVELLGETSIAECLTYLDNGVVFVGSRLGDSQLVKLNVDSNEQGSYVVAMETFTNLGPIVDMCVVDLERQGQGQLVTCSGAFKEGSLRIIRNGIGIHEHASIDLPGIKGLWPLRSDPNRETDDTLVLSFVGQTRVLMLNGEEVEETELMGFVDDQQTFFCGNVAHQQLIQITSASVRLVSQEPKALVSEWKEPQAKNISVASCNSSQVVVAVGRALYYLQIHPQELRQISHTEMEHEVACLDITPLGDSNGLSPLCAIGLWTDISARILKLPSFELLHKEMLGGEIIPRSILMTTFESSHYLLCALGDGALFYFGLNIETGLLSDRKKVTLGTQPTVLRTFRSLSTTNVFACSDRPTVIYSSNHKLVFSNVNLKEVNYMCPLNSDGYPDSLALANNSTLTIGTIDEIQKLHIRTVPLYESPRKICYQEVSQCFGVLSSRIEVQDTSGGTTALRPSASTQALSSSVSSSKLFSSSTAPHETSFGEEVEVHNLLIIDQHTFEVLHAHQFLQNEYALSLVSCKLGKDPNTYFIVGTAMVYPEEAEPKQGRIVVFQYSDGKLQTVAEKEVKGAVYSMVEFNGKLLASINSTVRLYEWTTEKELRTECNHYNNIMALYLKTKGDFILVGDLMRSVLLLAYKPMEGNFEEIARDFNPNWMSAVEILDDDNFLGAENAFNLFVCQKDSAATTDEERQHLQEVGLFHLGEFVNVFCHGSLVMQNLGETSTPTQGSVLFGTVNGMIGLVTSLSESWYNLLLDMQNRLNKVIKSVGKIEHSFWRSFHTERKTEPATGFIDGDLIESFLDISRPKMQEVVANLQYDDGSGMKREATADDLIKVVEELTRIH

Compound	IC50	IC50 [1]
CCCCc1ccc(OC2CCC(=O)NC2=O)cc1 (centres unmarked) [Compound I-124]	1 to 10 µM	
COc1ccccc1SC1CCC(=O)NC1=O (centres unmarked) [Compound I-75]	10 to 100 µM	
O=C1CCC(Sc2ccccc2C(F)(F)F)C(=O)N1 (centres unmarked) [Compound I-109]	10 to 100 µM	
Cc1ccc(SC2CCC(=O)NC2=O)cc1 (centres unmarked) [Compound I-66]	10 to 100 µM	
Nc1ccc(SC2CCC(=O)NC2=O)cc1 (centres unmarked) [Compound I-14, 3-(4-Amino-phenylsulfanyl)-piperidine-2,6-dione]	10 to 100 µM	
O=c1ccn(-c2ccccc2)c(=O)[nH]1 [Compound I-27, 1-phenylpyrimidine-2,4(1H,3H)-dione]	10 to 100 µM	
O=C1CCC(Sc2nc3ccccc3[nH]2)C(=O)N1 (centres unmarked) [Compound I-96]	10 to 100 µM	
CCc1ccc([S+]([O-])C2CCC(=O)NC2=O)cc1 (centres unmarked) [Compound I-64, 3-((4-ethylphenyl)sulfinyl)piperidine-2,6-dione]	10 to 100 µM	
O=C1CCC(Sc2cc(C(F)(F)F)cc(C(F)(F)F)c2)C(=O)N1 (centres unmarked) [Compound I-92]	10 to 100 µM	
O=C1CCC(Sc2ccc(C(F)(F)F)cc2)C(=O)N1 (centres unmarked) [Compound I-16, 3-((4-(trifluoromethyl)phenyl)thio)piperidine-2,6-dione]	10 to 100 µM	
CN(C)C(=O)c1ccnc(SC2CCC(=O)NC2=O)c1 (centres unmarked) [Compound I-132, 2-((2,6-Dioxopiperidin-3-yl)thio)-N,N-dimethylisonicotinamide]	10 to 100 µM	
O=C1CCC(Sc2ccc(CO)cc2)C(=O)N1 (centres unmarked) [Compound I-112]	10 to 100 µM	
NC(=O)c1ccnc(SC2CCC(=O)NC2=O)c1 (centres unmarked) [Compound I-130, 2-((2,6-Dioxopiperidin-3-yl)thio)isonicotinamide]	1 to 10 µM	
O=C1CCC(Sc2ccccc2O)C(=O)N1 (centres unmarked) [Compound I-74]	1 to 10 µM	
O=C1CCC(Oc2ccccc2)C(=O)N1 (centres unmarked) [Compound I-103]	10 to 100 µM	
O=C1CCC(Sc2cccc3cccnc23)C(=O)N1 (centres unmarked) [Compound I-97]	1 to 10 µM	
Cn1cccc(N2CCC(=O)NC2=O)c1=O [Compound I-143]		> 100 µM
Cn1nc(N2CCC(=O)NC2=O)cc1-c1ccccc1 [Compound I-88, 1-(1-Methyl-5-phenyl-1H-pyrazol-3-yl)dihydropyrimidine-2,4(1H,3H)-dione]	10 to 100 µM	
O=C1CCC(Sc2ncccc2C(=O)O)C(=O)N1 (centres unmarked) [Compound I-126]	1 to 10 µM	
CCCCc1ccc(SC2CCC(=O)NC2=O)cc1 (centres unmarked) [Compound I-84]	1 to 10 µM	
O=C1CCC(Sc2ccccn2)C(=O)N1 (centres unmarked) [Compound I-6, 3-(pyridin-2-ylthio)piperidine-2,6-dione]	10 to 100 µM	
CCc1ccc(OC2CCC(=O)NC2=O)cc1 (centres unmarked) [Compound I-78, 3-(4-ethylphenoxy)piperidine-2,6-dione]	1 to 10 µM	
Cn1ccc(CN2CCC(=O)NC2=O)n1 [Compound I-106]	10 to 100 µM	
CCc1ccc(S(=O)(=O)C2CCC(=O)NC2=O)cc1 (centres unmarked) [Compound I-65, 3-((4-ethylphenyl)sulfonyl)piperidine-2,6-dione]	10 to 100 µM	

Compound	IC50	IC50 [1]
CN1CCN(c2ccc(OC3CCC(=O)NC3=O)cc2)CC1 (centres unmarked) [Compound I-128]	10 to 100 µM	
CC(C)c1ccc(SC2CCC(=O)NC2=O)cc1 (centres unmarked) [Compound I-68]	1 to 10 µM	
COCCOCCNC(=O)c1cccnc1SC1CCC(=O)NC1=O (centres unmarked) [Compound I-142]	1 to 10 µM	
CN(C)c1ccc(SC2CCC(=O)NC2=O)cc1 (centres unmarked) [Compound I-85]	1 to 10 µM	
CCN(CC)c1ccc(SC2CCC(=O)NC2=O)cc1 (centres unmarked) [Compound I-135]	1 to 10 µM	
Cn1cc(C2SC(=O)NC2=O)c2ccccc21 (centres unmarked) [Compound I-71, 5-(1-Methyl-1H-indol-3-yl)thiazolidine-2,4-dione]		> 100 µM
O=C1CCC(Sc2ncccn2)C(=O)N1 (centres unmarked) [Compound I-83]	10 to 100 µM	
NC(=O)c1cccnc1SC1CCC(=O)NC1=O (centres unmarked) [Compound I-140, 2-((2,6-Dioxopiperidin-3-yl)thio)nicotinamide]	1 to 10 µM	
Cn1cc2ccccc2c(N2CCC(=O)NC2=O)c1=O [Compound I-146, 1-(2-Methyl-3-oxo-2,3-dihydroisoquinolin-4-yl)dihydropyrimidine-2,4(1H,3H)-dione]		> 100 µM
CNC(=O)c1ccnc(SC2CCC(=O)NC2=O)c1 (centres unmarked) [Compound I-131, 2-((2,6-Dioxopiperidin-3-yl)thio)-N-methylisonicotinamide]	10 to 100 µM	
O=C1CCC(Sc2nc3ccc(Cl)cc3[nH]2)C(=O)N1 (centres unmarked) [Compound I-94]	1 to 10 µM	
Cc1cc(O)nc(SC2CCC(=O)NC2=O)n1 (centres unmarked) [Compound I-95, 3-((4-hydroxy-6-methylpyrimidin-2-yl)thio)piperidine-2,6-dione]	10 to 100 µM	
O=C1CCC(Sc2nc3ccc(Cl)cc3[nH]2)C(=O)N1 (centres unmarked) [Compound I-8]		1 to 10 µM
O=C1CCC(Sc2ccccc2)C(=O)N1 (centres unmarked) [Compound I-4, 3-(phenylthio)piperidine-2,6-dione]	10 to 100 µM	
O=C1CCC(Sc2ccc(F)c(F)c2)C(=O)N1 (centres unmarked) [Compound I-114]	10 to 100 µM	
O=C1CCC(Sc2cccc(Cl)c2)C(=O)N1 (centres unmarked) [Compound I-122]	1 to 10 µM	
Cn1c(=O)c(N2CCC(=O)NC2=O)cc2ccccc21 [Compound I-144, 1-(1-Methyl-2-oxo-1,2-dihydroquinolin-3-yl)dihydropyrimidine-2,4(1H,3H)-dione]		> 100 µM
O=C1CCC(Sc2ccc(F)cc2)C(=O)N1 (centres unmarked) [Compound I-7]	10 to 100 µM	
CCc1ccc(SC2CCC(=O)NC2=O)cc1 (centres unmarked) [Compound I-17, 3-((4-ethylphenyl)thio)piperidine-2,6-dione]	1 to 10 µM	
N#Cc1cccc(SC2CCC(=O)NC2=O)c1 (centres unmarked) [Compound I-134]	10 to 100 µM	
O=c1ccn(-c2ccccn2)c(=O)[nH]1 [Compound I-28, 1-(pyridin-2-yl)pyrimidine-2,4(1H,3H)-dione]		> 100 µM
O=C1CCC(Sc2cccc(C(=O)O)n2)C(=O)N1 (centres unmarked) [Compound I-136]	1 to 10 µM	
N#Cc1ccc(SC2CCC(=O)NC2=O)cc1 (centres unmarked) [Compound I-67, 4-((2,6-Dioxopiperidin-3-yl)thio)benzonitrile]	10 to 100 µM	

Next, values leading:

IC50	IC50 [1]	Compound
1 to 10 µM		O=C1CCC(Sc2cc(Cl)ccc2Cl)C(=O)N1 (centres unmarked) [Compound I-101]
1 to 10 µM		O=C1CCC(Sc2cccc(Br)c2)C(=O)N1 (centres unmarked) [Compound I-108, 3-((3-Bromophenyl)thio)piperidine-2,6-dione]
1 to 10 µM		Cc1ccc(SC2CCC(=O)NC2=O)c(C)c1 (centres unmarked) [Compound I-79]
10 to 100 µM		Nc1cc(=O)nc(SC2CCC(=O)NC2=O)[nH]1 (centres unmarked) [Compound I-113]
10 to 100 µM		O=C1CCC(Sc2ccc(C(F)(F)F)cn2)C(=O)N1 (centres unmarked) [Compound I-98]
10 to 100 µM		O=C1CCC(Sc2cccc(C(=O)O)c2)C(=O)N1 (centres unmarked) [Compound I-123]
10 to 100 µM		Nc1cc(C(F)(F)F)ccc1SC1CCC(=O)NC1=O (centres unmarked) [Compound I-120]
	> 100 µM	O=C1CCC(SC2CCCCC2)C(=O)N1 (centres unmarked) [Compound I-116]
	> 100 µM	Cn1nc(C2SC(=N)NC2=O)c2ccccc21 (centres unmarked) [Compound I-81, 2-Imino-5-(1-methyl-1H-indazol-3-yl)thiazolidin-4-one]
10 to 100 µM		O=C1CCC(Sc2nc3ccccc3n2C2CC2)C(=O)N1 (centres unmarked) [Compound I-70, 3-((1-Cyclopropyl-1H-benzo[d]imidazol-2-yl)thio)piperidine-2,6-dione]
10 to 100 µM		CC(C)(C)n1c(SC2CCC(=O)NC2=O)nc2ccccc21 (centres unmarked) [Compound I-63, 3-((1-(tert-Butyl)-1H-benzo[d]imidazol-2-yl)thio)piperidine-2,6-dione]
1 to 10 µM		O=C1CCC(Sc2cc(-c3nn[nH]n3)ccn2)C(=O)N1 (centres unmarked) [Compound I-139, 3-((4-(2H-Tetrazol-5-yl)pyridin-2-yl)thio)piperidine-2,6-dione]
	> 100 µM	Cn1ccc(N2CCC(=O)NC2=O)n1 [Compound I-76]
10 to 100 µM		O=C1CCC(Oc2cccc3cccnc23)C(=O)N1 (centres unmarked) [Compound I-129]
1 to 10 µM		COc1cccc(SC2CCC(=O)NC2=O)c1 (centres unmarked) [Compound I-87]
10 to 100 µM		O=C1CCC(Sc2ccc(C(=O)O)cn2)C(=O)N1 (centres unmarked) [Compound I-133, 6-((2,6-Dioxopiperidin-3-yl)thio)nicotinic Acid]
10 to 100 µM		O=C1CCC(Sc2cccc(CO)c2)C(=O)N1 (centres unmarked) [Compound I-127, 3-((3-(Hydroxymethyl)phenyl)thio)piperidine-2,6-dione]
10 to 100 µM		O=C1CCC(Sc2ccncc2)C(=O)N1 (centres unmarked) [Compound I-62]
1 to 10 µM		CCn1c(SC2CCC(=O)NC2=O)nc2ccccc21 (centres unmarked) [Compound I-11, 3-((1-ethyl-1H-benzo[d]imidazol-2-yl)thio)piperidine-2,6-dione]
	> 100 µM	Cn1ccnc1SC1CCC(=O)NC1=O (centres unmarked) [Compound I-73]
10 to 100 µM		Cn1c(SC2CCC(=O)NC2=O)nc2ccccc21 (centres unmarked) [Compound I-12, 3-(1-Methyl-1H-benzoimidazol-2-ylsulfanyl)-piperidine-2,6-dione]
1 to 10 µM		O=C1CCC(Oc2ccc3ccccc3c2)C(=O)N1 (centres unmarked) [Compound I-119]
10 to 100 µM		O=C1CCC(Sc2cc(Cl)c(Cl)cc2Cl)C(=O)N1 (centres unmarked) [Compound I-102]
1 to 10 µM		CC(C)(C)c1ccc(OC2CCC(=O)NC2=O)cc1 (centres unmarked) [Compound I-115]
10 to 100 µM		O=C1CCC(Sc2ccc(C(=O)O)cc2)C(=O)N1 (centres unmarked) [Compound I-10, 4-((2,6-dioxopiperidin-3-yl)thio)benzoic acid]
10 to 100 µM		Cc1cccc(SC2CCC(=O)NC2=O)c1 (centres unmarked) [Compound I-69]
10 to 100 µM		Cc1cc(C)nc(SC2CCC(=O)NC2=O)n1 (centres unmarked) [Compound I-89]
	> 100 µM	Cn1c(=O)n(C2SC(=O)NC2=O)c2ccccc21 (centres unmarked) [Compound I-39]
1 to 10 µM		CN(C)c1ccc(OC2CCC(=O)NC2=O)cc1 (centres unmarked) [Compound I-125]
1 to 10 µM		O=C1CCC(Sc2cc(C(=O)O)ccn2)C(=O)N1 (centres unmarked) [Compound I-111]
